Entries after “also recorded” stand apart in the source; their conditions may differ.
How the values were obtained:
[1] = system: rabbit neutrophils; test: Induction of neutrophil apoptosis (Annexin-V and PI staining); type: cell-based
Protocol: • 1. Acquire 5-10 ml blood from adult rabbit • 2. Isolate neutrophils using RED BLOOD CELL LYSING BUFFER (SIGMA Cat No. R7757) and rabbit isolation kit (TBDsciences, Cat No. LZS11133) • 3. Treat neutrophils with reference compounds or SG45 for 15 h • 4. Apoptosis assay (Annexin-V and PI staining)
Harvest neutrophils by centrifugation at 1,000 rpm, 4° C. for 7 min Remove culture medium after centrifugation. Wash the cell pellet with pre-cooled PBS 200 l once. The re-suspend the cells with pre-cooled PBS 100 l. Incubate the cells with 2 l dye PI (BD Biosciences. Cat. No. 556463) and 2 l anti-Annexin V-PE (BD Biosciences. Cat. No. 556421) at room temperature under the darkness for 30 minutes. Remove the antibodies by centrifugation at 1,000 rpm, 4° C. for 2 min Resuspend the cells in 200 l pre-cooled PBS Finally, load the cell suspension to the FACS machine to acquire the staining results: […]

[2] = system: L02; test: Cellular effect in mammalian cells, L02; type: cell-based; conditions: Homo sapiens
[3] = target: T1, TSSK1 (Homo sapiens, UniProt Q9BXA7); test: Kinase assay TSSK1; conditions: read-out: Target biochemical activity IC50, TSSK1
T1 sequence (Q9BXA7 1-367): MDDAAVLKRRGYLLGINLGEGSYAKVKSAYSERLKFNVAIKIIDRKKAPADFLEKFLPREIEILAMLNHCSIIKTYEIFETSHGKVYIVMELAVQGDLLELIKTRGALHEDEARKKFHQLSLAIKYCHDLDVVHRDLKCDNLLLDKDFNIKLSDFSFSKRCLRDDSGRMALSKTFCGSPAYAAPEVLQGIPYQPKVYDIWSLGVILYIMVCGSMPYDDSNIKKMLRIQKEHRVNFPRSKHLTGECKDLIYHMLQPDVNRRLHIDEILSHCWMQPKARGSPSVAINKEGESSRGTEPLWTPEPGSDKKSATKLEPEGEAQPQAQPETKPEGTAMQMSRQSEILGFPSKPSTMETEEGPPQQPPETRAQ

[4] = Preliminary toxicology study in mice (acute toxicity); type: in vivo; conditions: mouse, in vivo, po, p.o. (gavage), two weeks
Protocol: (§1) Preliminary toxicology study in mice: Mice were divided into four groups (n=10 in each), 500 mg/kg, 1,000 mg/kg or 2,000 mg/kg were administered respectively to three groups by gavage. Negative control is 0.5% CMC-Na. After two weeks, mice were sacrificed and tissue section of visceral organs were analyzed by Hematoxylin-Eosin staining

[5] = system: mice; test: as above; type: in vivo; conditions: p.o.
Protocol: as §1

[6] = system: MCF-7 cells; test: Cell apoptosis assay (TUNEL, PARP Western blot); type: cell-based; conditions: 48 hours, TUNEL and PARP Western blot
Protocol: (§2) MCF-7 cells were treated with compound 18 (F200) and Roscovitine for 48 hours. Then the cells were analyzed by TUNEL assay and Western blot to detect apoptosis.
For TUNEL assay, cells were fixed and blocking in 6-well plate. DNA strand breaks were labeled by terminal deoxynucleotidyl transferase (TdT), which catalyzed polymerization of labeled nucleotides to free 3′-OH DNA ends in template-independent manner Fluorescein could be detected by anti-fluorescein antibody, conjugated with horse-radish-peroxidase (POD). After DAB reaction, stained cells were analyzed and counted under light microscope.
(§3) For Western blot, cells were harvested and lysed by lysis buffer. Western blot were performed with anti-PARP or anti-Pol[…] II antibody. During apoptosis, PARP is cleaved from a 113KD intact form into smaller 89KD and 24KD fragments.

[7] = PK profile: rat IV/PO study; type: in vivo; conditions: oral administration
[8] = system: lung carcinoma (H460); test: Tumor growth inhibition, H460 xenograft; type: in vivo, SCID-bg mice; conditions: 150 mg/kg, oral administration
Protocol: Animal: SCID-bg mice Tumor type: lung carcinoma (H460) Treatment: Single PO dose for 21 days (starting at day 7 following tumor inoculation) Endpoint: tumor volume and mean luciferase activity by Xenogen (Caliper) machine: SCID-bg mice were implanted with NCI-H460 cells at 5×10^6 cells/mouse on Day 0. Compound 18 treatment began on Day 7. […] In model group, the vehicle was used instead of compound 18. Tumor volume and mean luciferase activity by Xenogen technology were measured once per there days.

[9] = system: HT29; test: Cellular effect in mammalian cells, HT29; type: cell-based; conditions: Homo sapiens, HT-29
[10] = system: CDK9's activity on Pol II phosphorylation; test: Western blot of Pol II phosphorylation; type: cell-based; conditions: MCF-7 cells, 48 hours
Protocol: as §2, §3

[11] = system: THP-1; test: Cellular effect in mammalian cells, THP-1; type: cell-based; conditions: Homo sapiens
[12] = system: HepG2; test: Cellular effect in mammalian cells, HepG2; type: cell-based; conditions: Homo sapiens
[13] = system: K562; test: Cellular effect in mammalian cells, K562; type: cell-based; conditions: Homo sapiens
[14] = target: CDK7 (Homo sapiens, UniProt P50613); test: Kinase assay CDK7; conditions: read-out: Target biochemical activity IC50, CDK7
Chain of CDK7 (P50613 whole entry, species assumed): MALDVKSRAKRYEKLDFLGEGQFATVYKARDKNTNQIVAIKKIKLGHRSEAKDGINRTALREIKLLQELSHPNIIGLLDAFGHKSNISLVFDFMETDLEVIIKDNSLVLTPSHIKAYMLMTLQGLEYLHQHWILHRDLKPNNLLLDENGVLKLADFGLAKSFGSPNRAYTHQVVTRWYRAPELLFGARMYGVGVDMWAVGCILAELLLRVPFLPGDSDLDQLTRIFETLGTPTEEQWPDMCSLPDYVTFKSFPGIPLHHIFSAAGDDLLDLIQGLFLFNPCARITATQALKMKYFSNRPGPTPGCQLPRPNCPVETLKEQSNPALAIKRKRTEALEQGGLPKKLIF
Chain of CDK7 (P51946 whole entry partner, species assumed): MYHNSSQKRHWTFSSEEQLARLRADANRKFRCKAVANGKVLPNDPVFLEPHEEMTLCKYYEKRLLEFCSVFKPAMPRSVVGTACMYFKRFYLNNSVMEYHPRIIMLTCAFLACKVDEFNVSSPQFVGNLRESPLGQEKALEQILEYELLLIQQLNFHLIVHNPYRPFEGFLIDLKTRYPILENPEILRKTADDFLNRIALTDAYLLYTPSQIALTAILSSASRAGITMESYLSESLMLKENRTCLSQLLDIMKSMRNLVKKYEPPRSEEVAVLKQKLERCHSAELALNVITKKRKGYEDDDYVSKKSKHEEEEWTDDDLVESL
Chain of CDK7 (P51948 whole entry partner, species assumed): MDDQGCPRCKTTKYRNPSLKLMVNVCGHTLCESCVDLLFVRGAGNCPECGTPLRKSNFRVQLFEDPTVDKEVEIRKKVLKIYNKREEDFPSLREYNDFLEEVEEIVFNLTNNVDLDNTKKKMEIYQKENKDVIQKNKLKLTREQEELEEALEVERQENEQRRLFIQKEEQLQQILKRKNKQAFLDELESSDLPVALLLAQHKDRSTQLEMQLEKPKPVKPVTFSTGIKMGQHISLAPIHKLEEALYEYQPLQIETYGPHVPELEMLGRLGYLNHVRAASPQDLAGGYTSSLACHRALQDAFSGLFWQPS

[15] = system: HeLa; test: Cellular effect in mammalian cells, HeLa; type: cell-based; conditions: Homo sapiens
[16] = system: MRC-5; test: Cellular effect in mammalian cells, MRC-5; type: cell-based; conditions: Homo sapiens, MRC5
[17] = system: H460; test: Cellular effect in mammalian cells, H460; type: cell-based; conditions: Homo sapiens, NCI-H460
[18] = system: Jurkat; test: Cellular effect in mammalian cells, Jurkat; type: cell-based; conditions: Homo sapiens
[19] = target: CDK2 (Homo sapiens, UniProt P24941); test: Kinase assay CDK2; conditions: read-out: Target biochemical activity IC50, CDK2
[20] = system: HCT116; test: Cellular effect in mammalian cells, HCT116; type: cell-based; conditions: Homo sapiens, HCT-116
[21] = system: MCF-7; test: Cellular effect in mammalian cells, MCF-7; type: cell-based; conditions: Homo sapiens, MCF7
[22] = target: SRC (Homo sapiens, UniProt P12931); test: Kinase assay SRC; conditions: read-out: Target biochemical activity IC50, SRC
Chain of SRC (P12931 whole entry, species assumed): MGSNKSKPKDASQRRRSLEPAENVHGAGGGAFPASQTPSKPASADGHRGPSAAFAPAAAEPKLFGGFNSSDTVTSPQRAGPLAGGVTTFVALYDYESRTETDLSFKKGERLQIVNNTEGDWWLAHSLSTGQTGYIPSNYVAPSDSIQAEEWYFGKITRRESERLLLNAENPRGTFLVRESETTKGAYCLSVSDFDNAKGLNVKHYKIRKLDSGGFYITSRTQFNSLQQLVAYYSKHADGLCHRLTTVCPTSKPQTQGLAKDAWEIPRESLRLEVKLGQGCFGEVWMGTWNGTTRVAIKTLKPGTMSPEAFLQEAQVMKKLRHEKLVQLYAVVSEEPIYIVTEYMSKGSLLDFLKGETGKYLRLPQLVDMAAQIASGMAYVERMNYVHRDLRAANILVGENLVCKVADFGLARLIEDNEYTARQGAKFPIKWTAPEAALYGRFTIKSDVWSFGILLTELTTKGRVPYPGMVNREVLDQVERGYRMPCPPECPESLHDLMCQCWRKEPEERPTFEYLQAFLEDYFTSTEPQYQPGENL

[23] = target: Aurora B (Homo sapiens, UniProt Q96GD4); test: Kinase assay Aurora B; conditions: read-out: Target biochemical activity IC50, Aurora B
Chain of Aurora B (Q96GD4 whole entry): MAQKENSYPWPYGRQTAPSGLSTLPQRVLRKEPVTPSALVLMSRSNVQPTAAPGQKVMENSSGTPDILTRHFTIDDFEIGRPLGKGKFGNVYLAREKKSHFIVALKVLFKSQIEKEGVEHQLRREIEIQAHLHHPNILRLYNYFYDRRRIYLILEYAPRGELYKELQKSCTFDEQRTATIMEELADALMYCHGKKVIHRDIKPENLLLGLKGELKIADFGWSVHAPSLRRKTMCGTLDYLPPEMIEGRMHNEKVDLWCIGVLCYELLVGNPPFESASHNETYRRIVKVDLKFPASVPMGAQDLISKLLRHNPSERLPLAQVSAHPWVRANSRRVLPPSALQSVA

SMILES	IC50 [3] [µM]	IC50 [9] [µM]	IC50 [11] [µM]	IC50 [13] [µM]	IC50 [15] [µM]	IC50 [18] [µM]	IC50 [20] [µM]	IC50 [21] [µM]	IC50 [2] [µM]	IC50 [16] [µM]	further results
CCn1cc(-c2ccnc(Nc3cccc(S(N)(=O)=O)c3)n2)c2cccnc21 [Compound 18, 3-(4-(1-Ethyl-1H-pyrrolo[2,3-b]pyridin-3-yl)pyrimidin-2-ylamino)benzenesulfonamide]	> 10	0.59	5.3						4.3		Induction of neutrophil apoptosis compared with Roscovitine ([1]; 15 h, FIG. 5): stronger capability in inducing neutrophil apoptosis than Roscovitine; Apoptotic morphological changes of neutrophils ([1]; increasing dose (0.5, 2, 10 μM), FIG. 4): typical apoptotic morphological changes; LD50 at 2 weeks [4]: > 2000 mg/kg; MTD at 2 weeks [4]: > 500 mg/kg; Tolerability in animals [5]: excellent tolerability in animals; Induction of cell apoptosis [6]: induced apoptosis of cells; also recorded: induced cell apoptosis with dose-dependent manner; Oral availability (in words) [7]: good oral availability; Tumor growth inhibition (in words) [8]: able to inhibit tumor growth; Inhibition of CDK9's activity on Pol II phosphorylation [10]: inhibited CDK9's activity on Pol II phosphorylation
CCn1cc(-c2ccnc(Nc3ccc(O)cc3)n2)c2ccnc(Cl)c21 [SG49, 4-(4-(7-Chloro-1-ethyl-1H-pyrrolo[2,3-c]pyridin-3-yl)pyrimidin-2-ylamino)phenol]		8.59	3.68	3.52	2.69	0.61	4.28	> 10	7.34	5.82	IC50 [12]: 5.55 µM; IC50 [17]: 2.95 µM
CCCn1cc(-c2ccnc(Nc3ccc(C)c(S(=O)(=O)N4CCOCC4)c3)n2)c2ccncc21 [SG52, N-(4-Methyl-3-(morpholinosulfonyl)phenyl)-4-(1-propyl-1H-pyrrolo[2,3-c]pyridin-3-yl)pyrimidin-2-amine]									1.4		
CCCn1cc(-c2ccnc(Nc3ccc(S(N)(=O)=O)cc3)n2)c2nc(Cl)cc(C)c21 [SG54, 4-(4-(5-Chloro-7-methyl-1-propyl-1H-pyrrolo[3,2-b]pyridin-3-yl)pyrimidin-2-ylamino)benzenesulfonamide]									8.37		

The next lines start with results.

IC50 [3] [µM]	IC50 [9] [µM]	IC50 [11] [µM]	IC50 [13] [µM]	IC50 [15] [µM]	IC50 [18] [µM]	IC50 [20] [µM]	IC50 [21] [µM]	SMILES	IC50 [2] [µM]	IC50 [16] [µM]	further results
0.14	8.31	> 10	4.75	3.31	1.92	4.67	9.4	CCn1cc(-c2ccnc(Nc3cccc(O)c3)n2)c2ccnc(Cl)c21 [SG48, 3-(4-(7-Chloro-1-ethyl-1H-pyrrolo[2,3-c]pyridin-3-yl)pyrimidin-2-ylamino)phenol]	8.1	> 10	IC50 [12]: 6.1 µM; IC50 [14]: 3.28 µM; IC50 [17]: 4.66 µM; IC50 [19]: 0.004 µM; IC50 [22]: > 10 µM
0.52	1.16		0.61	0.23	0.4	0.28	0.45	CCn1cc(-c2ccnc(Nc3cccc(S(N)(=O)=O)c3)n2)c2ccnc(Cl)c21 [SG50, 3-(4-(7-Chloro-1-ethyl-1H-pyrrolo[2,3-c]pyridin-3-yl)pyrimidin-2-ylamino)benzenesulfonamide]		3.36	IC50 [14]: > 10 µM; IC50 [23]: > 10 µM; IC50 [19]: 0.004 µM; IC50 [22]: > 10 µM
					0.005			CCCn1cc(-c2ccnc(Nc3cccc(S(N)(=O)=O)c3)n2)c2ccncc21 [SG51, 3-(4-(1-Propyl-1H-pyrrolo[2,3-c]pyridin-3-yl)pyrimidin-2-ylamino)benzenesulfonamide]			
	0.25					3.56		CCCn1cc(-c2ccnc(Nc3cccc(S(N)(=O)=O)c3)n2)c2nc(Cl)cc(C)c21 [SG53, 3-(4-(5-Chloro-7-methyl-1-propyl-1H-pyrrolo[3,2-b]pyridin-3-yl)pyrimidin-2-ylamino)benzenesulfonamide]			
